In patent publication US20250066359A1, “SOMATOSTATIN RECEPTOR SUBTYPE 5 ANTAGONISTS, AND PHARMACEUTICAL COMPOSITION AND USE THEREOF” (SHANGHAI INSTITUTE OF MATERIA MEDICA, CHINESE ACADEMY OF …, priority 2021, published 2025):

What was measured:
hSSTR5 = biological target: T1, hSSTR5 (Homo sapiens, UniProt P35346); assay: SSTR5 antagonistic activity in vitro by calcium flow detection (hSSTR5-CHO-Gα16 cells); format: cell-based; conditions: for IC50: hSSTR5-CHO-Gα16 cells, 100 nM Somatostatin-14 agonist, Fluo-4 fluorescence 525 nm; for SSTR5 antagonistic activity (in words): summary of Table 1
T1 construct: expressed in transfected cells; host or cells: CHO cells co-expressing Gα16 (hSSTR5-CHO-Gα16)
Source text: (§1) Testing SSTR5 antagonistic activity in vitro by Calcium flow detection method Experimental principle: After the receptor binds to the ligand and is activated, it can cause the activation of Gα16 protein, which further activates phospholipase C(PLC) to produce IP3 and DAG. IP3 can bind to the IP3 receptors on the endoplasmic reticulum and mitochondria in the cell, thereby causing the release of intracellular calcium. Therefore, measuring the changes in intracellular calcium can be used in the method to detect the activation state of hSSTR5. Fluo-4/AM is a calcium fluorescent probe indicator used to measure calcium ions. As a non-polar lipid-soluble compound, after it enters the cell, the AM group therein dissociates, and Fluo-4 is released under the action of cellular lipase; because Fluo-4 is a polar molecule and is not easy to pass through the lipid bilayer membrane, it can keep Fluo-4 in the cell fora longtime. Finally, the level of Ga protein activation can be reflected by measuring the intensity of the excited fluorescence. Somatostatin, an agonist of SSTR5, can activate SSTR5 receptors and greatly increase the calcium flow response. The SSTR5 antagonist to be tested can inhibit the agonist activity of the SSTR5 receptor and reduce the calcium increased flow response of the receptor stimulated by the agonist.
(§2) • (1) The hSSTR5-CHO-Gα16 and mSSTR5-CHO-Gα16 cell lines stably expressing hSSTR5 or mSSTR5 receptors were seeded at a density of 30,000/well in a 96-well plate and cultured in a 37° C. incubator overnight. • (2) The cells was aspirated off the culture medium, added with freshly prepared dye at 40 μL/well, and incubated in a 37° C. incubator for 45 minutes. • (3) After the dye was aspirated and discarded, the cells were washed with freshly prepared calcium buffer and the culture medium was replaced with 50 μL of calcium buffer. • (4) The SSTR5 agonist Somatostatin-14 was diluted and mixed evenly with calcium buffer. • (5) Detection was performed using a Flextation instrument. Starting from the 15th second, 25 μL of the pre-prepared agonist was automatically added by the instrument, and the fluorescence value at 525 nm was read.

mSSTR5 = biological target: T2, mSSTR5 (Mus musculus, UniProt O08858); assay: SSTR5 antagonistic activity in vitro by calcium flow detection (mSSTR5-CHO-Gα16 cells); format: cell-based; conditions: 100 nM Somatostatin-14 agonist, Fluo-4 fluorescence 525 nm
T2 construct: expressed in transfected cells; host or cells: CHO cells co-expressing Gα16 (mSSTR5-CHO-Gα16)
T2 sequence (O08858 1-362): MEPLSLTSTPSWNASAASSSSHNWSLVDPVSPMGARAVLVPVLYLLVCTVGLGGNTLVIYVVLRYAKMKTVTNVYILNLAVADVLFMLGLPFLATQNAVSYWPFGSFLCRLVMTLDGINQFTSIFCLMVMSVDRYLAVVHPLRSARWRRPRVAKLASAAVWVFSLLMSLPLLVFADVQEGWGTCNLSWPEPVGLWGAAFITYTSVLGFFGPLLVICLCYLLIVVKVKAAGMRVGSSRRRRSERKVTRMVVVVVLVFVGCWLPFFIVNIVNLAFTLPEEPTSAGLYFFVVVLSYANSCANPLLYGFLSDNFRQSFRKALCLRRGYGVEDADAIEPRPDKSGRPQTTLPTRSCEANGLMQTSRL
Source text: as §1, §2

T1 sequence (P35346 whole entry): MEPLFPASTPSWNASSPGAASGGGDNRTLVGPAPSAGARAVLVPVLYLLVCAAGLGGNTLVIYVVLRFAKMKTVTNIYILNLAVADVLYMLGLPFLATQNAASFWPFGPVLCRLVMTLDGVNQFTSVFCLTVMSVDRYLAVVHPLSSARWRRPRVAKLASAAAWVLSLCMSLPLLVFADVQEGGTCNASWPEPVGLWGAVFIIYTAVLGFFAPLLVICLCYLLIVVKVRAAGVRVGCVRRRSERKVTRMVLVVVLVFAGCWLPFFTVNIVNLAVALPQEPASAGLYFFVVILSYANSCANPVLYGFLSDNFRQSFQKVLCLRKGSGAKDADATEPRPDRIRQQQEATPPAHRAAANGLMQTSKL

SMILES: CCOc1cc(CN2CCC3(CCC(=O)N(c4ccc(C(=O)O)cc4)C3)CC2)cc(OCC)c1-c1ccc(F)cc1 [Example 1, 4-(9-((2,6-diethoxy-4′-fluoro-[1,1′-biphenyl]-4-yl)methyl)-3-oxo-2,9-diazaspiro[5.5]undec-2-yl)benzoic acid]
- IC50 (hSSTR5): 50 to 200 nM

SMILES: CCOc1cc(CN2CCC3C(CCN3c3ccc(C(=O)O)cc3)C2)cc(OCC)c1-c1ccc(F)cc1 (centres unmarked) [Example 2, 4-(5-((2,6-diethoxy-4′-fluoro-[1,1′-biphenyl]-4-yl)methyl)octahydro-1H-pyrrolo[3,2-c]pyridin-1-yl)benzoic acid]
- IC50 (hSSTR5): 0.1 to 50 nM
- SSTR5 antagonistic activity (in words) (hSSTR5): potent SSTR5 antagonistic activity
- IC50 (mSSTR5): 50 to 200 nM

SMILES: CCOc1cc(CN2CCC3(CC2)CCN(c2ccc(C(=O)O)cc2)C(=O)C3)cc(OCC)c1-c1ccc(F)cc1 [Example 3, 4-(9-((2,6-diethoxy-4′-fluoro-[1,1′-biphenyl]-4-yl)methyl)-2-oxo-3,9-diazaspiro[5.5]undec-3-yl)benzoic acid]
- IC50 (hSSTR5): 50 to 200 nM

SMILES: CCOc1cc(CN2CCC(C3CN(c4ccc(C(=O)O)cc4)C3)CC2)cc(OCC)c1-c1ccc(F)cc1 [Example 4, 4-(3-(1-((2,6-diethoxy-4′-fluoro-[1,1′-biphenyl]-4-yl)methyl)piperidin-4-yl)azetidin-1-yl)benzoic acid]
- IC50 (hSSTR5): 50 to 200 nM

SMILES: CCOc1cc(CN2CCC3(CC2)CN(c2ccc(C(=O)O)cc2)CCO3)cc(OCC)c1-c1ccc(F)cc1 [Example 5]
- IC50 (hSSTR5): 50 to 200 nM

SMILES: CCOc1cc(CN2CC3(CC(Nc4ccc(C(=O)O)cc4)C3)C2)cc(OCC)c1-c1ccc(F)cc1 [Example 6, 4-((2-((2,6-diethoxy-4′-fluoro-[1,1′-biphenyl]-4-yl)methyl)-2-azaspiro[3.3]heptane-6-yl)amino)benzoic acid]
- IC50 (hSSTR5): > 200 nM

SMILES: CCOc1cc(CN2CC3(CC(=O)N(c4ccc(C(=O)O)cc4)C3)C2)cc(OCC)c1-c1ccc(F)cc1 [Example 7, 4-(2-((2,6-diethoxy-4′-fluoro-[1,1′-biphenyl]-4-yl)methyl)-7-oxo-2,6-diazaspiro[3.4]octane-6-yl)benzoic acid]
- IC50 (hSSTR5): 0.1 to 50 nM
- SSTR5 antagonistic activity (in words) (hSSTR5): potent SSTR5 antagonistic activity
- IC50 (mSSTR5): 0.1 to 50 nM

SMILES: CCOc1cc(CN2CC3(CC(=O)N(c4ccc(C(=O)O)cc4)C3)C2)c(C2CC2)cc1C [Example 8, 4-(2-(2-cyclopropyl-5-ethoxy-4-methylbenzyl)-7-oxo-2,6-diazaspiro[3.4]octane-6-yl)benzoic acid]
- IC50 (hSSTR5): 50 to 200 nM

SMILES: CCOc1ccc(C2CC2)c(CN2CC3(CC(=O)N(c4ccc(C(=O)O)cc4)C3)C2)c1 [Example 9, 4-(2-(2-cyclopropyl-5-ethoxybenzyl)-7-oxo-2,6-diazaspiro[3.4]octyl-6-yl)benzoic acid]
- IC50 (hSSTR5): 50 to 200 nM

SMILES: CCOc1cc(CN2CCC3(CC2)CN(c2ccc(C(=O)O)cc2)C3)cc(OCC)c1-c1ccc(F)cc1 [Example 10, 4-(7-((2,6-diethoxy-4′-fluoro-[1,1′-biphenyl]-4-yl)methyl)-2,7-diazaspiro[3.5]nonan-2-yl)benzoic acid]
- IC50 (hSSTR5): 0.1 to 50 nM
- SSTR5 antagonistic activity (in words) (hSSTR5): potent SSTR5 antagonistic activity
- IC50 (mSSTR5): 0.1 to 50 nM

SMILES: CCOc1cc(CN2CCC3(CC2)CC(NS(=O)(=O)c2ccc(OC(F)(F)F)cc2)C3)cc(OCC)c1-c1ccc(F)cc1 [Example 11, N-(7-((2,6-diethoxy-4′-fluoro-[1,1′-biphenyl]-4-yl)methyl)-7-azaspiro[3.5]nonan-2-yl)-4-(trifluoromethoxy)benzenesulfonamide]
- IC50 (hSSTR5): 50 to 200 nM
- IC50 (mSSTR5): 0.1 to 50 nM

SMILES: CCOc1cc(CN2CCN(C3CCN(S(=O)(=O)c4ccc(OC(F)(F)F)cc4)CC3)CC2)cc(OCC)c1-c1ccc(F)cc1 [Example 12, 1-((2,6-diethoxy-4′-fluoro-[1,1′-biphenyl]-4-yl)methyl)-4-(1-((4-(trifluoromethoxy)phenyl)sulfonyl)piperidin-4-yl)piperazine]
- IC50 (hSSTR5): 0.1 to 50 nM
- SSTR5 antagonistic activity (in words) (hSSTR5): potent SSTR5 antagonistic activity
- IC50 (mSSTR5): 0.1 to 50 nM

SMILES: CCOc1cc(CN2CCC(N3CCN(S(=O)(=O)c4ccc(OC(F)(F)F)cc4)CC3)CC2)cc(OCC)c1-c1ccc(F)cc1 [Example 13]
- IC50 (hSSTR5): > 200 nM

SMILES: CCOc1cc(CN2CCC(C3CN(S(=O)(=O)c4ccc(OC(F)(F)F)cc4)C3)CC2)cc(OCC)c1-c1ccc(F)cc1 [Example 14]
- IC50 (hSSTR5): 0.1 to 50 nM
- IC50 (mSSTR5): 0.1 to 50 nM

SMILES: CCOc1cc(CN2CCN(C3CCN(S(=O)(=O)c4ccc(C(=O)O)cc4)CC3)CC2)cc(OCC)c1-c1ccc(F)cc1 [Example 15, 4-((4-(4-((2,6-diethoxy-4′-fluoro-[1,1′-biphenyl]-4-yl)methyl)piperazin-1-yl)piperidin-1-yl)sulfonyl)benzoic acid]
- IC50 (hSSTR5): > 200 nM

SMILES: CCOc1cc(CN2CCN(S(=O)(=O)c3ccc(OC(F)(F)F)cc3)CC2)cc(OCC)c1-c1ccc(F)cc1 [Example 16, 1-((2,6-diethoxy-4′-fluoro-[1,1′-biphenyl]-4-yl)methyl)-4-((4-(trifluoromethoxy)phenyl)sulfonyl)piperazine]
- IC50 (hSSTR5): > 200 nM

SMILES: CCOc1cc(CN2CCN(S(=O)(=O)c3ccc(C(=O)O)cc3)CC2)cc(OCC)c1-c1ccc(F)cc1 [Example 17, 4-((4-((2,6-diethoxy-4′-fluoro-[1,1′-biphenyl]-4-yl)methyl)piperazin-1-yl)sulfonyl)benzoic acid]
- IC50 (hSSTR5): 50 to 200 nM

SMILES: CCOc1cc(CN2CCC3(CC2)CN(c2ccc(C(=O)O)cc2)C3=O)cc(OCC)c1-c1ccc(F)cc1 [Example 18, 4-(7-((2,6-diethoxy-4′-fluoro-[1,1′-biphenyl]-4-yl)methyl)-1-oxo-2,7-diazaspiro[3.5]nonan-2-yl)benzoic acid]
- IC50 (hSSTR5): 0.1 to 50 nM
- SSTR5 antagonistic activity (in words) (hSSTR5): potent SSTR5 antagonistic activity

SMILES: CCOc1cc(CN2CCC3(CC2)CN(c2ccc(C(=O)O)cc2)C3)c(C2CC2)cc1C [Example 19, 4-(7-(2-cyclopropyl-5-ethoxy-4-methylbenzyl)-2,7-diazaspiro[3,5]nonan-2-yl)benzoic acid]
- IC50 (hSSTR5): 0.1 to 50 nM
- SSTR5 antagonistic activity (in words) (hSSTR5): potent SSTR5 antagonistic activity

SMILES: CCOc1cc(CN2CCC3(CC2)CN(c2ccc(C(=O)O)cc2)C3)c(-c2ccc(F)c(F)c2F)cc1C [Example 20, 4-(7-((4-ethoxy-2′,3′,4′-trifluoro-5-methyl-[1,1′-biphenyl]-2-yl)methyl)-2,7-diazaspiro[3,5]nonan-2-yl)benzoic acid]
- IC50 (hSSTR5): 50 to 200 nM

SMILES: CCOc1cc(CN2CC3(CC(=O)N(c4ccc(C(=O)O)cc4)C3)C2)ccc1F [Example 21, 4-(2-(3-ethoxy-4-fluorobenzyl)-7-oxy-2,6-diazaspiro[3.4]octan-6-yl)benzoic acid]
- IC50 (hSSTR5): > 200 nM

SMILES: CCOc1cc(CN2CC3(CC(=O)N(c4ccc(C(=O)O)cc4)C3)C2)ccc1C [Example 22, 4-(2-(3-ethoxy-4-methylbenzyl)-7-oxy-2,6-diazaspiro[3.4]octan-6-yl)benzoic acid]
- IC50 (hSSTR5): > 200 nM

SMILES: O=C(O)c1ccc(N2CC3(CC2=O)CN(Cc2cc(C(F)(F)F)ccc2C2CC2)C3)cc1 [Example 23, 4-(2-(2-cyclopropyl-5-(trifluoromethyl)benzyl)-7-oxo-2,6-diazaspiro[3.4]octyl-6-yl)benzoic acid]
- IC50 (hSSTR5): > 200 nM

SMILES: CCOc1cc(CN2CCC3(CC2)CN(c2ccc(C(=O)O)cc2)C3)ccc1F [Example 24, 4-(7-(3-ethoxy-4-fluorobenzyl)-2,7-diazaspiro[3.5]nonan-2-yl)benzoic acid]
- IC50 (hSSTR5): 50 to 200 nM

SMILES: CCOc1cc(CN2CCC3(CC2)CN(c2ccc(C(=O)O)cc2)C3)ccc1N(CC)CC [Example 25, 4-(7-(4-(diethylamino)-3-ethoxybenzyl)-2,7-diazaspiro[3.5]nonan-2-yl)benzoic acid]
- IC50 (hSSTR5): 50 to 200 nM

SMILES: CCOc1cc(CN2CC3(CC(=O)N(c4ccc(C(=O)O)cc4)C3)C2)ccc1O [Example 26, 4-(2-(3-ethoxy-4-hydroxybenzyl)-7-oxo-2,6-diazaspiro[3.4]octyl-6-yl)benzoic acid]
- IC50 (hSSTR5): > 200 nM
